Tests used:
[1] = test system: hiPSC; experiment: toxicity of chemical inhibitors added to hiPSC culture after nucleofection
Method: Plasmids were purified using the plasmid DNA purification kit sold under the trademark Qiagen ENDOFREE® Plasmid Maxi kit and nucleofected into iPSC cells using the Lonza 4D-Nucleofector X unit (Buffer P3, Program CB-150). For each 20 μl nucleofection reaction, 0.2-0.5×106 iPSC were transfected with up to 4 μg of plasmid DNA. Post-nucleofection, iPSC were plated onto solubilized basement membrane matrix secreted by Engelbreth-Holm-Swarm (EHS) mouse sarcoma cells sold under the trademark […]®-coated wells containing feeder-free cell culture medium sold under the trademark MTESR1™ media with 10 μM Y-27632 plus other chemical inhibitors when noted. Later experiments included 50 μM zVAD-fmk (Bachem) for 1 day and 10 μM SB203580 (Biovision) for 4-5 days post transfection (see FIGS. 5, 6, 11, and 12). For FIG. 6 (ssODN transfection), 200 ng/ml recombinant B 18R (eBioscience), was also added to the culture for 5 days post transfection.
The following inhibitors were added to the hiPSC culture at the concentrations and time periods indicated in the Examples below. • 1. p53 or Bax inhibitors: cyclic pifithrin α (StemCell Technologies); pifithrin (Tocris); peptide V5, peptide control, iMAC1 and iMAC2 (EMD Millipore); N-acetyl cysteine and 4-hydroxy TEMPO (TEMPOL) (Sigma). • 2. […]

[2] = test system: human iPSC; experiment: mThy1 gene targeting in hiPSC co-transfected with DNA repair or viral inhibitor genes; assay type: cell-based; details: 0.5 μg plasmid overexpressing the DNA repair gene; 50 μM zVAD and 10 μM SB203580 post transfection (FIG. 9E)
Method: FIGS. 9A-G. Effects of chemical and genetic inhibitors on mThy1 gene targeting in hiPSC. FIG. 9A. Mouse Thy1 gene targeting scheme. Human iPSC were nucleofected with the mThy1 targeting vector system plasmids and analyzed by flow cytometry five days later. The percentages of mThy1^+hThy1^−, mThy1^+hThy1^+, and mThy1^−hThy1^− cells for each sample (gated on live single cells) are graphed. Lines mark the percentage values for the control sample. FIGS. 9B-9D. Human iPSC were nucleofected with: 2 μg mThy1 targeting vector; 0.5 μg Cas9 plasmid; and 1.5 μg of sgRNA plasmids. The sample was divided into multiple wells and cultured in plain media (mTeSR1+10 μM Y-27632 ROCK inhibitor) supplemented with the indicated chemical inhibitor for three days. 20 μM pifithrin α, 200 μM peptide V5 (VPMLK, SEQ ID NO:31), 200 μM peptide control (IPMIK, SEQ ID NO:32), 50 μM TEMPOL, or the indicated concentrations of SCR7 or L755507 were used. FIG. 9B, mThy1^+hThy1^− (bottom portion of each bar in each graph), mThy1^+hThy1^+ (top portion of each bar in each graph). FIG. 9C, mThy1^+hThy1^− (bottom portion of each bar in each graph), mThy1^+hThy1^+ (top portion of each bar in left and center graphs, middle portion of each bar in right graph), and mThy1^−hThy1^− (top portion of each bar in right graph). […]

[3] = test system: human iPSC; experiment: gene targeting (mThy1, mCD147) in hiPSC transiently transfected with Cas9-IRES-anti-apoptotic gene plasmids; assay type: cell-based; details: Cas9 Bcl-2 sgRNA plasmids, transient transfection
Method: FIGS. 4A-D. Bcl-2 overexpression increases HR-mediated gene targeting in human iPSC when transiently transfected with the Cas9 nuclease. FIG. 4A. Mouse Thy1 gene targeting scheme. FIG. 4B. Plasmids were constructed to constitutively express Cas9 together with an anti-apoptotic gene (separated by an IRES) under the constitutively active EF1α promoter. Plain human iPSC were nucleofected with 0.5 μg of one of these Cas9 plasmids together with 2 μg of the mThy1 targeting vector and 1.5 μg of plasmids expressing the Thy1 Left, Right, both, or no sgRNAs (pUC19). Five days later, cells were analyzed by flow cytometry. FIG. 4C. Flow cytometry staining for mThy1 and hThy1 for the Cas9 only sample gated on live single cells; the percent of cells in each quadrant is indicated. […] FIG. 4D. Compiled gene editing frequencies. The percent of mThy1^+hThy1^− (bottom portion of each bar in the left, center, and right grafts), mThy1^+hThy1^+ (top portion of bars in the left and center graphs), and mThy1^−hThy1^− (top portion of bars in the right graph) cells is graphed for each indicated sample. Lines mark the percentages for the Cas9 only sample. Results are representative of two independent experiments.
FIGS. 8A-F. Wild type Bcl-2 improves gene targeting at various genomic loci across multiple hiPSC lines. FIG. 8A. Plasmids were constructed to constitutively express the Cas9 nuclease with a form of Bcl-2 (separated by an IRES), and a sgRNA. Three human iPSC lines were nucleofected with 2 μg of mThy1 or mCD147 targeting vector and 2 μg of “Cas9 sgRNA” or “Cas9 Bcl-2 sgRNA” expression plasmid. 5-9 days later, cells were analyzed by flow cytometry. FIG. 8B. Mouse Thy1 gene targeting scheme. FIG. 8C. Single amino acid mutations were generated for the Bcl-2 BH1 (G145A) or BH4 (Y28A) domains. Compiled gene editing frequencies for cells transfected with the Left, Right, or Both Thy1 sgRNAs. The percent of mThy1^+hThy1^− (bottom portion of each set of bars in each graph), mThy1^+hThy1^+ (top portion of left and center sets of bars in each graph and center portion of right set of bars in each graph), and mThy1^−hThy1^− (top portion of right set of bars in each graph) cells among the various samples is indicated. FIG. 8D. Mouse CD147 gene targeting scheme. FIG. 8E. Flow cytometry staining for mCD147 and hCD147 for retrovirally-derived PGP1 hiPSC transfected with “Cas9 sgRNA” or “Cas9 Bcl-2 sgRNA”. Samples are gated on live single cells; the percent of cells in each quadrant is indicated. FIG. 8F. Compiled gene editing frequencies for cells transfected with the Left, Right, or both CD147 sgRNAs. The percent of mCD147^+hCD147^− (bottom portion of each set of bars in each graph), mCD147^+hCD147^+ (top portion of left and center sets of bars in each graph and center portion of right set of bars in each graph), and mCD147^−hCD147^− (top portion of right set of bars in each graph) cells among the three hiPSC lines is indicated.
PCR reactions were done using polymerase sold under the trademark KAPA HIFI™ HotStart polymerase; primers and double-stranded DNA fragments sold under the trademark GBLOCKS® are from IDT. Plasmids were constructed using isothermal assembly, transformed into Stbl3 competent E. coli (Invitrogen), grown at 30° C., and verified by Sanger sequencing (Genewiz). Anti-apoptotic genes were obtained from previously published plasmids: Bcl-2 (Addgene plasmid #8793) and Bcl-xL (#8790) (Cheng et al., 2001); Bcl2A1 (#36973) (Pratt et al., 2012); and Mcl-1 (#21605) (Maurer et al., 2006). The dominant negative p53 sequence from Addgene plasmid #9058 (Hahn et al., 2002) was synthesized as a gBlock. These genes were cloned into the EF1α promoter-Cas9 nuclease plasmid after an IRES.
The U6 promoter-sgRNA (for each sgRNA sequence) was cloned into the EF1α promoter-Cas9 nuclease or EF1α promoter-Cas9 nuclease-IRES-Bcl-2 expression plasmids to form the “Cas9 only sgRNA” or “Cas9 Bcl-2 sgRNA” plasmids used in Examples 6 and 7. […]

## C[C@H]1CCC/C=C/[C@@H]2C[C@H](O)C[C@H]2[C@H](O)/C=C/C(=O)O1 [Brefeldin A]
[1]; PGP1 hiPSC, 0.1 μM, data not shown
  toxicity to hiPSC: toxic

## CC(=O)N[C@@H](CS)C(=O)O [N-acetyl cysteine]
[1]; 1-5 mM
  toxicity to hiPSC: toxicity

## BRCA1: principal HR mediator, overexpressed from plasmid
[2]
  mThy1 gene targeting efficiency: did not improve mThy1 gene targeting efficiency

## BRCA2: principal HR mediator, overexpressed from plasmid
[2]
  mThy1 gene targeting efficiency: did not improve mThy1 gene targeting efficiency

## G145A: Bcl-2 with G145A mutation in the BH1 domain, prevents interaction with Bax
[3]
  mThy1 gene targeting, wild type vs mutant Bcl-2: intermediate levels of gene targeting

## Y28A: Bcl-2 with Y28A mutation in the BH4 domain
[3]
  mThy1 gene targeting, wild type vs mutant Bcl-2: intermediate levels of gene targeting

Source: patent US11459586B2, “Methods for increasing efficiency of nuclease-mediated gene editing in stem cells” (President and Fellows of Harvard College, priority 2016, dated 2022)
